Measured values as given in ChEMBL document CHEMBL1649532, “Trypanocidal activity of 8-methyl-5'-{[(Z)-4-aminobut-2-enyl]-(methylamino)}adenosine (Genz-644131), an adenosylmethionine decarboxylase inhibitor” (Antimicrob Agents Chemother, 2009).
In brackets after ≈: the same amount, converted by molar mass. Activity calls are given as the source filed them. No cut-off for these calls is given here.

Key:
[1] = test system: Trypanosoma brucei rhodesiense; assay: Trypanocidal activity against Trypanosoma brucei rhodesiense KETRI1992 infected in mouse assessed as average survival time at 10 mg/kg, ip BID administered 24 hrs postinfection; type: functional; conditions: route intraperitoneal
[2] = test system: Trypanosoma brucei brucei; assay: Trypanocidal activity against Trypanosoma brucei brucei EATRO infected in mouse assessed as protection against trypanosomal infection at 25 mg/kg, ip QD for 4 days; type: functional, organism-based; set-up: dose 25 mg/kg
[3] = test system: Trypanosoma brucei brucei; assay: Trypanocidal activity against Trypanosoma brucei brucei EATRO infected in mouse assessed as mean survival time at 5 mg/kg, ip BID for 4 days; type: functional; conditions: route intraperitoneal
[4] = test system: Trypanosoma brucei rhodesiense; assay: Trypanocidal activity against Trypanosoma brucei rhodesiense KETRI243 infected in mouse assessed as average survival time at 10 mg/kg, ip BID administered 24 hrs postinfection; type: functional; conditions: route intraperitoneal
[5] = test system: Trypanosoma brucei rhodesiense; assay: Trypanocidal activity against Trypanosoma brucei rhodesiense KETRI243 infected in mouse assessed as average survival time at 50 mg/kg, ip BID administered 24 hrs postinfection; type: functional; conditions: route intraperitoneal
[6] = test system: Trypanosoma brucei brucei; assay: Trypanocidal activity against Trypanosoma brucei brucei EATRO infected in mouse assessed as mean survival time at 10 mg/kg, ip BID for 4 days; type: functional; conditions: route intraperitoneal
[7] = test system: Trypanosoma brucei brucei; assay: Trypanocidal activity against Trypanosoma brucei brucei 667 infected in mouse assessed as average day of relapse of trypanosomal infection at 10 mg/kg, ip BID for 14 days; type: functional; conditions: route intraperitoneal
[8] = test system: Trypanosoma brucei brucei; assay: Trypanocidal activity against Trypanosoma brucei brucei EATRO infected in mouse assessed as mean survival time at 2 mg/kg, ip BID for 4 days; type: functional; conditions: route intraperitoneal
[9] = test system: Trypanosoma brucei brucei; assay: Trypanocidal activity against Trypanosoma brucei brucei EATRO infected in mouse assessed as cure rate at 1 mg/kg, ip QD for 4 days; type: functional; conditions: route intraperitoneal
[10] = test system: Trypanosoma brucei rhodesiense; assay: Trypanocidal activity against Trypanosoma brucei rhodesiense KETRI2538 after 48 hrs; type: functional, organism-based; conditions: KETRI2538, 48 h
[11] = test system: Trypanosoma brucei rhodesiense; assay: Trypanocidal activity against Trypanosoma brucei rhodesiense KETRI1992 infected in mouse assessed as average survival time at 10 mg/kg, ip QD administered 24 hrs postinfection; type: functional; conditions: route intraperitoneal
[12] = test system: Trypanosoma brucei brucei; assay: Trypanocidal activity against Trypanosoma brucei brucei 667 infected in mouse assessed as average day of relapse of trypanosomal infection at 100 mg/kg, ip BID for 7 days; type: functional; conditions: route intraperitoneal
[13] = test system: Trypanosoma brucei brucei; assay: Trypanocidal activity against Trypanosoma brucei brucei EATRO infected in mouse assessed as protection against trypanosomal infection at 2 mg/kg, ip BID for 4 days; type: functional, organism-based; set-up: dose 2 mg/kg
[14] = test system: Trypanosoma brucei rhodesiense; assay: Trypanocidal activity against Trypanosoma brucei rhodesiense KETRI243 infected in mouse assessed as protection against trypanosomal infection at 10 mg/kg, ip QD administered 24 hrs postinfection; type: functional, organism-based; set-up: dose 10 mg/kg
[15] = test system: Trypanosoma brucei brucei; assay: Trypanocidal activity against Trypanosoma brucei brucei 667 infected in mouse assessed as average day of relapse of trypanosomal infection at 10 mg/kg, ip BID for 7 days; type: functional; conditions: route intraperitoneal
[16] = test system: Trypanosoma brucei rhodesiense; assay: Trypanocidal activity against Trypanosoma brucei rhodesiense KETRI2002 infected in mouse assessed as average survival time at 10 mg/kg, ip BID administered 24 hrs postinfection; type: functional; conditions: route intraperitoneal
[17] = test system: Trypanosoma brucei brucei; assay: Trypanocidal activity against Trypanosoma brucei brucei EATRO infected in mouse assessed as mean survival time at 50 mg/kg, ip BID for 4 days; type: functional; conditions: route intraperitoneal
[18] = test system: Trypanosoma brucei rhodesiense; assay: Trypanocidal activity against Trypanosoma brucei rhodesiense KETRI1992 infected in mouse assessed as protection against trypanosomal infection at 10 mg/kg, ip BID administered 24 hrs postinfection; type: functional, organism-based; set-up: dose 10 mg/kg
[19] = test system: Trypanosoma brucei brucei; assay: Trypanocidal activity against Trypanosoma brucei brucei EATRO infected in mouse assessed as protection against trypanosomal infection at 10 mg/kg, ip BID for 4 days; type: functional, organism-based; set-up: dose 10 mg/kg
[20] = test system: Trypanosoma brucei brucei; assay: Trypanocidal activity against Trypanosoma brucei brucei EATRO infected in mouse assessed as protection against trypanosomal infection at 2 mg/kg, ip QD for 4 days; type: functional, organism-based; set-up: dose 2 mg/kg
[21] = test system: Trypanosoma brucei rhodesiense; assay: Trypanocidal activity against Trypanosoma brucei rhodesiense KETRI243 infected in mouse assessed as average survival time at 50 mg/kg, ip QD administered 24 hrs postinfection; type: functional; conditions: route intraperitoneal
[22] = test system: Trypanosoma brucei rhodesiense; assay: Trypanocidal activity against Trypanosoma brucei rhodesiense KETRI1992 infected in mouse assessed as protection against trypanosomal infection at 10 mg/kg, ip QD administered 24 hrs postinfection; type: functional, organism-based; set-up: dose 10 mg/kg
[23] = test system: Trypanosoma brucei rhodesiense; assay: Trypanocidal activity against Trypanosoma brucei rhodesiense KETRI2002 infected in mouse assessed as cure rate at 50 mg/kg, ip BID administered 24 hrs postinfection; type: functional; conditions: route intraperitoneal
[24] = test system: Trypanosoma brucei brucei; assay: Trypanocidal activity against Trypanosoma brucei brucei EATRO infected in mouse assessed as mean survival time at 10 mg/kg, ip QD for 4 days; type: functional; conditions: route intraperitoneal
[25] = test system: Trypanosoma brucei rhodesiense; assay: Trypanocidal activity against Trypanosoma brucei rhodesiense KETRI1992 infected in mouse assessed as average survival time at 25 mg/kg, ip QD administered 24 hrs postinfection; type: functional; conditions: route intraperitoneal
[26] = test system: Trypanosoma brucei brucei; assay: Trypanocidal activity against Trypanosoma brucei brucei EATRO infected in mouse assessed as protection against trypanosomal infection at 5 mg/kg, ip QD for 4 days; type: functional, organism-based; set-up: dose 5 mg/kg
[27] = test system: Trypanosoma brucei brucei; assay: Trypanocidal activity against Trypanosoma brucei brucei 667 infected in mouse assessed as average day of relapse of trypanosomal infection at 10 mg/kg, ip BID for 4 days; type: functional; conditions: route intraperitoneal
[28] = test system: Trypanosoma brucei rhodesiense; assay: Trypanocidal activity against Trypanosoma brucei rhodesiense KETRI243 infected in mouse assessed as protection against trypanosomal infection at 50 mg/kg, ip QD administered 24 hrs postinfection; type: functional, organism-based; set-up: dose 50 mg/kg
[29] = test system: Trypanosoma brucei rhodesiense; assay: Trypanocidal activity against Trypanosoma brucei rhodesiense KETRI243 after 48 hrs; type: functional, organism-based; conditions: KETRI243, 48 h
[30] = test system: Trypanosoma brucei brucei; assay: Trypanocidal activity against Trypanosoma brucei brucei 667 infected in mouse assessed as average day of relapse of trypanosomal infection at 25 mg/kg, ip BID for 14 days; type: functional; conditions: route intraperitoneal
[31] = test system: Trypanosoma brucei rhodesiense; assay: Trypanocidal activity against Trypanosoma brucei rhodesiense KETRI243 infected in mouse assessed as protection against trypanosomal infection at 10 mg/kg, ip BID administered 24 hrs postinfection; type: functional, organism-based; set-up: dose 10 mg/kg
[32] = test system: Trypanosoma brucei rhodesiense; assay: Trypanocidal activity against Trypanosoma brucei rhodesiense KETRI2002 infected in mouse assessed as average survival time at 25 mg/kg, ip QD administered 24 hrs postinfection; type: functional; conditions: route intraperitoneal

Cc1nc2c(N)ncnc2n1[C@@H]1O[C@H](CN(C)C/C=C\CN)[C@@H](O)[C@H]1O
MST [1]: 20.4 days | Activity [2]: Active | MST [3]: >35 days | MST [4]: 14.8 days | MST [5]: 23.3 days | MST [6]: >35 days | MST [7]: 59.8 days | MST [8]: >35 days | Activity [9]: >50% | IC50 [10]: 0.3 ng/mL (≈ 0.825 nM) | MST [11]: 16.6 days | MST [12]: 68.8 days | Activity [13]: Active | Activity [14]: inactive | MST [15]: 53 days | MST [16]: 21.5 days | MST [17]: >35 days | Activity [18]: inactive | Activity [19]: Active | Activity [20]: Active | MST [21]: 17.2 days | Activity [22]: inactive | Activity [23]: 80% | MST [24]: >35 days | MST [25]: 18.6 days | Activity [26]: Active | MST [27]: 36 days | Activity [28]: inactive | IC50 [29]: 3.75 ng/mL (≈ 10.3 nM) | MST [30]: 70.3 days | Activity [31]: inactive | MST [32]: 20 days
